From ChEMBL document CHEMBL1201862, “PubChem BioAssay data set” (2004)
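Compound exposure: 48 hours, 5 concentrations, 96-well plates. Abbreviation: GI50, concentration required for 50% inhibition of growth.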 Active and inactive are the calls of the source. Cut-off read from the data, not from the text of the source: active = GI50 up to about 1.1 µM and inactive = higher.

Columns and labels:
Experiment in all cases: DTP human tumour cell line panel, 48 h
MDA-MB-435 = tested on: MDA-MB-435
IGROV-1 = tested on: IGROV-1
SR = tested on: SR
COLO 205 = tested on: COLO 205
OVCAR-3 = tested on: OVCAR-3
NCI-H23 = tested on: NCI-H23
MDA-N = tested on: MDA-N
Hs-578T = tested on: Hs-578T
HOP-92 = tested on: HOP-92
UACC-62 = tested on: UACC-62
OVCAR-4 = tested on: OVCAR-4
CCRF-CEM = tested on: CCRF-CEM
HCC 2998 = tested on: HCC 2998
NCI/ADR-RES = tested on: NCI/ADR-RES
HCT-15 = tested on: HCT-15
HL-60 = tested on: HL-60
SF-295 = tested on: SF-295
LOX IMVI = tested on: LOX IMVI
SK-MEL-2 = tested on: SK-MEL-2
SK-MEL-28 = tested on: SK-MEL-28

| Compound | GI50 (MDA-MB-435) | GI50 (IGROV-1) | GI50 (SR) | GI50 (COLO 205) | GI50 (OVCAR-3) | GI50 (NCI-H23) | GI50 (MDA-N) | GI50 (Hs-578T) | GI50 (HOP-92) | GI50 (UACC-62) | GI50 (OVCAR-4) | GI50 (CCRF-CEM) | GI50 (HCC 2998) | GI50 (NCI/ADR-RES) | GI50 (HCT-15) | GI50 (HL-60) | GI50 (SF-295) | GI50 (LOX IMVI) | GI50 (SK-MEL-2) | GI50 (SK-MEL-28) |
| --- | --- | --- | --- | --- | --- | --- | --- | --- | --- | --- | --- | --- | --- | --- | --- | --- | --- | --- | --- | --- |
| CCCCc1ccc(C#CC#Cc2ccc(CCCC)s2)s1 | > 100 µM (inactive) | > 100 µM (inactive) | > 100 µM (inactive) | > 100 µM (inactive) | > 100 µM (inactive) | > 100 µM (inactive) | > 100 µM (inactive) | > 100 µM (inactive) | > 100 µM (inactive) | > 100 µM (inactive) | > 100 µM (inactive) | 4.39 µM (inactive) | > 100 µM (inactive) | > 100 µM (inactive) | > 100 µM | 24.8 µM (inactive) | > 100 µM (inactive) |  |  |  |
| Cc1cc(-c2nc3ccc(F)cc3s2)ccc1NC(=O)C(N)CCCCN (stereo not drawn) | 2.17 µM (inactive) | 0.617 µM (active) | 1.96 µM (inactive) | 4.51 µM (inactive) | 7.83 µM (inactive) | 4.73 µM (inactive) | 2.52 µM (inactive) | 5.12 µM (inactive) | 8.2 µM (inactive) | 10.8 µM (inactive) | 8.28 µM (inactive) | 2.71 µM (inactive) | 1.26 µM (inactive) | 15.1 µM (inactive) | 9.08 µM | 2.9 µM (inactive) | 6.93 µM (inactive) | 2.3 µM (inactive) | 10.1 µM (inactive) | 18.4 µM (inactive) |
| CC1OC(n2cnc3c(N)nc(Cl)nc32)C(C)(O)C1O (stereo not drawn) | > 25 µM (inactive) | > 25 µM (inactive) | > 25 µM (inactive) | > 25 µM (inactive) | > 25 µM (inactive) | > 25 µM (inactive) | > 25 µM (inactive) | > 25 µM (inactive) | > 25 µM (inactive) | > 25 µM (inactive) | > 25 µM (inactive) | > 25 µM (inactive) | > 25 µM (inactive) | > 25 µM (inactive) | > 25 µM | > 25 µM (inactive) | > 25 µM (inactive) | > 25 µM (inactive) | > 25 µM (inactive) |  |
| CC(=O)OC[C@@H]1[C@H]2CC[C@]3(C)[C@@H](OC(C)=O)CC[C@H]3[C@@H]2CC[C@H]1C1(C)SCCS1 | > 25 µM (inactive) | > 25 µM (inactive) | > 25 µM (inactive) | > 25 µM (inactive) | > 25 µM (inactive) | > 25 µM (inactive) | > 25 µM (inactive) | > 25 µM (inactive) | > 25 µM (inactive) |  | > 25 µM (inactive) | > 25 µM (inactive) | > 25 µM (inactive) | > 25 µM (inactive) | > 25 µM | > 25 µM (inactive) | > 25 µM (inactive) | > 25 µM (inactive) |  | > 25 µM (inactive) |
| CCCCCCCCCCCCCCCCC(=O)NCC(=O)NCC(=O)NC(Cc1ccccc1)C(=O)Oc1ccc([N+](=O)[O-])cc1 (stereo not drawn) | 58.5 µM (inactive) | > 100 µM (inactive) | 25 µM (inactive) | 20.2 µM (inactive) | > 100 µM (inactive) | 73.1 µM (inactive) | 48.5 µM (inactive) | > 100 µM (inactive) | 32.1 µM (inactive) | 20.7 µM (inactive) | > 100 µM (inactive) | 22 µM (inactive) | 17.7 µM (inactive) | 20.6 µM (inactive) | 19.1 µM | 50 µM (inactive) | 23 µM (inactive) | 20.4 µM (inactive) | 48.4 µM (inactive) | 15.8 µM (inactive) |
| O=Cc1ccc2c(c1)CC1(C2)Cc2ccc3c(c2C1)CCC3 (stereo not drawn) | 2.46 µM (inactive) | 16.4 µM (inactive) | 4.42 µM (inactive) | 20.8 µM (inactive) | 6.68 µM (inactive) | 14.6 µM (inactive) | 2.19 µM (inactive) | 7.41 µM (inactive) | 17 µM (inactive) | 6.56 µM (inactive) | 10.8 µM (inactive) | 5.14 µM (inactive) | 24.3 µM (inactive) | 7.19 µM (inactive) | 8.51 µM | 3.75 µM (inactive) | 5.85 µM (inactive) | 4.73 µM (inactive) | 4.02 µM (inactive) | 12.7 µM (inactive) |
| O=C1CSCC(=O)Nc2ccccc2N1 | > 100 µM (inactive) | > 100 µM (inactive) | > 100 µM (inactive) | > 100 µM (inactive) | > 100 µM (inactive) | > 100 µM (inactive) | > 100 µM (inactive) | > 100 µM (inactive) | > 100 µM (inactive) | > 100 µM (inactive) | > 100 µM (inactive) | > 100 µM (inactive) |  | > 100 µM (inactive) | > 100 µM | > 100 µM (inactive) | > 100 µM (inactive) | > 100 µM (inactive) | > 100 µM (inactive) | > 100 µM (inactive) |
